Reference: article PMC5762338, “A novel orally available Syk/Src/Jak2 inhibitor, SKLB-850, showed potent anti-tumor activities in B cell lymphoma (BCL) models” (Oncotarget, 2017)

Assays:
[1] = tested on: HBL-1 cells; experiment: Cell cycle analysis by FCM; type: cell-based, Human; conditions: HBL-1, compared with the control, 18 hours
Experimental: (§1) FCM was again used to examine the influence of SKLB-850 on the tumor cell cycle.
(§2) Figure 2 Cell cycle analysis of Ramos and HBL-1 cells induced by SKLB-850, R788 DMSO or control Tumor cells were treated by vehicle, R788 or indicated concentrations of compounds. After 18 hours, cell were harvested and stained with AnnexinV-FITC and propidium iodide, and then analyzed by FCM. […] (A and C) Cell cycle analysis of Ramos cells. (B and D) Cell cycle analysis of HBL-1 cells. […] Columns, mean; bars, SD.^##P < 0.01, 850 group versus DMSO or blank control group.
(§3) Ramos and HBL-1 cells cultured in 6-well plates were treated with DMSO, R788, SKLB-850 or medium. After 18 hours, cells were harvested and washed with PBS, fixed with 70% ethanol for 30 min, stained with 200 μL PI (50 μg/mL PI with 1 mg/mL RNase I, and 0.1% Triton X-100) for 30 min. Cell cycle was analyzed with a flow cytometer (BD FACSCalibur, BD, USA).

[2] = tested on: Ramos cells; experiment: Cell cycle analysis by FCM; type: cell-based, Human; conditions: 18 hours; for percentages of cells in the G2 phase (in words): compared with the control
Experimental: as §1, §2, §3

[3] = tested on: Ramos tumors; experiment: In situ TUNEL of tumor tissues from the Ramos model; type: in vivo, NOD/SCID mice
From the text: The ability of inducing apoptosis of SKLB-850 in tumor tissues was examined by TUNEL. […] We then examined apoptotic tumor cells in B-cell lymphoma samples from BCL patients after SKLB-850 treatment by FCM. As shown in Figure 6C and 6F, SKLB-850 induced cell apoptosis (14.10 ± 4.04%), and R788 had the same effect but relatively weak (7.60 ± 0.52%). To better understand the mechanism of antitumor activities in vivo, Ki67 and CD20 in mouse tumor tissues were detected by immunohischemistry; Ki67 was a marker of proliferation in the diagnosis of tumors and CD20 was highly expressed in B cell lymphomas.
Cell apoptosis in Ramos tumors was determined by a TUNEL assay following the manufacturer’s instructions (Promega). The number of TUNEL-positive cells was quantified by fluorescence microscopy and the apoptotic index in 6 random fields per group was counted.

[4] = tested on: HBL-1 xenograft; experiment: HBL-1 xenograft mouse model; type: in vivo, NOD/SCID mice; conditions: HBL-1 model
Experimental: The in vivo anti-BCL effects of SKLB-850 were investigated in the Ramos and HBL xenograft mouse models with R788 being taken as a positive control. The animals were treated orally once daily for 21 days (Ramos model) or 36 days (HBL-1 model).
All animal studies were conducted according to the guidelines of the Animal Care and Use Committee of Sichuan University (Permit Number: 20121205, Chengdu, Sichuan, China). Ramos and HBL-1 tumor cells were established by subcutaneously injecting 1×10^7 cells (100μL) into the hind flank region of 7–8 week old female NOD/SCID mice (ICR, NOD/SCID). When tumors reached a volume of ∼200 mm^3, mice were randomly divided into different groups (6 per group), and SKLB-850 (40 mg/kg, 20mg/kg) or vehicle (5% DMSO, 25% PEG400, and 70% waters) were given once daily by oral gavage. Tumor growth and body weight were measured every three days or every day during the treatment. Tumor volumes were calculated using the formula as follow: tumor volume (mm^3) = 0.5× length (mm) × width (mm) ^2. Studies were typically terminated when tumors in vehicle treated animals reached an average size of 2,000 mm^3. Solid tumors were removed and processed for immunohistochemical analysis and terminal deoxynucleotidyl transferase-mediated dUTP nick end labeling (TUNEL) assay.

| SMILES | percentages of cells in the G2 phase (in words) [1] | percentage of G2 phase cells ([2]; 0.01μg/mL, control 19.64 ± 0.61 %) | percentages of cells in the G2 phase (in words) [2] | apoptosis in tumor tissues (TUNEL) [3] | tumor inhibition rate ([4]; 20 mg/kg orally once daily for 36 days) | anti-tumor effect (in words) ([4]; positive control, orally once daily) |
| --- | --- | --- | --- | --- | --- | --- |
| CN1CCN(c2ccc(Nc3ncc(F)c(Nc4ccc(Cl)cc4C(N)=O)n3)cc2)CC1 [SKLB-850, 5-chloro-2-((5-fluoro-2-((4-(4-methylpiperazin-1-yl)phenyl)amino)pyrimidin-4-yl)amino) benzamide] | significantly increased | 53.90 ± 2.65% | significantly increased | 406.00 ± 20.70 % of control | 80.84% ±4.09% |  |
| COc1cc(Nc2ncc(F)c(Nc3ccc4c(n3)N(COP(=O)(O)O)C(=O)C(C)(C)O4)n2)cc(OC)c1OC [R788, reference compound] | very weak effect |  | very weak effect | 242.20 ± 20.00 % of control |  | some anti-tumor effect |
